Laboratory results reported in EP1935986B1, “Luminogenic and fluorogenic compounds and methods to detect molecules or conditions” (priority 2005, dated 2006).

How the values were obtained:
[1] = test system: thermostable luciferase (Luc 146-1H2); assay: Thermostable luciferase reaction with luciferin derivatives: light readings; format: biochemical; settings: substrate 100
Procedure: (§1) This stock was used to produce enzyme stock solution having of 200 µg/ml enzyme solution in 1 mg/ml BSA, 200 mM HEPES buffer, pH 8.0, 20 mM MgCl2.
(§2) Solutions were made using a 1 M DTT solution, pH adjusted to 8.0, a 20 mM Coenzyme A solution in water (both described in examples above), a 100 mM ATP solution and water to create the following solutions: Sol'A, 100 µM ATP; Sol'B, 100 µM ATP, 4 mM Coenzyme A; Sol'n C, 100 µM ATP, 400 mM DTT, and; Sol'n D, 100 µM ATP, 4 mM Coenzyme A and 400 mM DTT.
The following reactions were prepared (Table 47) Table 47
(§3) After assembly, the reactions were initiated by addition of 25 µl of the thermostable luciferase stock solution above and mixing the tube contents. A 50 µl sample was immediately removed and placed in a luminometer tube and the light read and the tube then replaced in a tube rack at room temperature. While the light reading was being taken, a 5 µl sample of the remaining reaction (which was kept at room temperature) was diluted into 495 µl of 50 mM BisTris, pH 6.5, 1 mg/ml BSA, 1 mM EDTA prechilled to 4°C and the tube mixed and placed on ice. The light produced by the samples in the luminometer tubes were re-read at 20, 40, 60, 90 and 120 minutes post enzyme addition. Additional 5 µl samples were taken and diluted as above at 60 and 120 minutes post enzyme addition. Once all these readings and samples were taken, 50 µl of the diluted samples was mixed with 50 µl of Steady Glo in luminometer tubes, the tubes incubated 10 minutes on ice then the light produced was read on a Turner TD 20/20 luminometer.

[2] = test system: thermostable luciferase (Luc 146-1H2); assay: Residual thermostable luciferase activity after reaction with luciferin derivatives (Steady Glo); format: biochemical
Procedure: as §1, §2, §3

## O=C(O)[C@H]1CSC(c2nc3ccc(OCc4ccccc4)cc3s2)=N1 [L'in-BE]
[1]; + Co A, Time 0 min
  light readings from the reaction samples: 191.9
[1]; + Co A, Time 20 min
  light readings from the reaction samples: 63.85
[1]; + Co A, Time 40 min
  light readings from the reaction samples: 29.28
[1]; + Co A, Time 60 min
  light readings from the reaction samples: 14.78
[1]; + Co A, Time 90 min
  light readings from the reaction samples: 6.652
[1]; + Co A, Time 120 min
  light readings from the reaction samples: 3.014
[1]; + DTT, Time 0 min
  light readings from the reaction samples: 148.7
[1]; + DTT, Time 20 min
  light readings from the reaction samples: 77.9
[1]; + DTT, Time 40 min
  light readings from the reaction samples: 48.39
[1]; + DTT, Time 60 min
  light readings from the reaction samples: 32.26
[1]; + DTT, Time 90 min
  light readings from the reaction samples: 21.71
[1]; + DTT, Time 120 min
  light readings from the reaction samples: 14.25
[1]; Alone, Time 0 min
  light readings from the reaction samples: 160
[1]; Alone, Time 20 min
  light readings from the reaction samples: 48.21
[1]; Alone, Time 40 min
  light readings from the reaction samples: 19.25
[1]; Alone, Time 60 min
  light readings from the reaction samples: 8.305
[1]; Alone, Time 90 min
  light readings from the reaction samples: 2.843
[1]; Alone, Time 120 min
  light readings from the reaction samples: 1.311
[2]; Substrate 6.25, + Co A & DTT, Time Sample Taken 0 min
  light values obtained upon addition of the diluted reaction samples into Steady Glo reagent: 1943
[2]; Substrate 6.25, + Co A & DTT, Time Sample Taken 60 min
  light values obtained upon addition of the diluted reaction samples into Steady Glo reagent: 1235
[2]; Substrate 6.25, + Co A & DTT, Time Sample Taken 120 min
  light values obtained upon addition of the diluted reaction samples into Steady Glo reagent: 1163
[2]; Substrate 6.25, + Co A, Time Sample Taken 0 min
  light values obtained upon addition of the diluted reaction samples into Steady Glo reagent: 1841
[2]; Substrate 6.25, + Co A, Time Sample Taken 60 min
  light values obtained upon addition of the diluted reaction samples into Steady Glo reagent: 518.6
[2]; Substrate 6.25, + Co A, Time Sample Taken 120 min
  light values obtained upon addition of the diluted reaction samples into Steady Glo reagent: 349.1
[2]; Substrate 6.25, + DTT, Time Sample Taken 0 min
  light values obtained upon addition of the diluted reaction samples into Steady Glo reagent: 1860
[2]; Substrate 6.25, + DTT, Time Sample Taken 60 min
  light values obtained upon addition of the diluted reaction samples into Steady Glo reagent: 1173
[2]; Substrate 6.25, + DTT, Time Sample Taken 120 min
  light values obtained upon addition of the diluted reaction samples into Steady Glo reagent: 1067
[2]; Substrate 6.25, Alone, Time Sample Taken 0 min
  light values obtained upon addition of the diluted reaction samples into Steady Glo reagent: 2057
[2]; Substrate 6.25, Alone, Time Sample Taken 60 min
  light values obtained upon addition of the diluted reaction samples into Steady Glo reagent: 406.6
[2]; Substrate 6.25, Alone, Time Sample Taken 120 min
  light values obtained upon addition of the diluted reaction samples into Steady Glo reagent: 267.7
[2]; Substrate 25, + Co A & DTT, Time Sample Taken 0 min
  light values obtained upon addition of the diluted reaction samples into Steady Glo reagent: 1925
[2]; Substrate 25, + Co A & DTT, Time Sample Taken 60 min
  light values obtained upon addition of the diluted reaction samples into Steady Glo reagent: 1102
[2]; Substrate 25, + Co A & DTT, Time Sample Taken 120 min
  light values obtained upon addition of the diluted reaction samples into Steady Glo reagent: 836.3
[2]; Substrate 25, + Co A, Time Sample Taken 0 min
  light values obtained upon addition of the diluted reaction samples into Steady Glo reagent: 1610
[2]; Substrate 25, + Co A, Time Sample Taken 60 min
  light values obtained upon addition of the diluted reaction samples into Steady Glo reagent: 277.8
[2]; Substrate 25, + Co A, Time Sample Taken 120 min
  light values obtained upon addition of the diluted reaction samples into Steady Glo reagent: 143.2
[2]; Substrate 25, + DTT, Time Sample Taken 0 min
  light values obtained upon addition of the diluted reaction samples into Steady Glo reagent: 1675
[2]; Substrate 25, + DTT, Time Sample Taken 60 min
  light values obtained upon addition of the diluted reaction samples into Steady Glo reagent: 910.2
[2]; Substrate 25, + DTT, Time Sample Taken 120 min
  light values obtained upon addition of the diluted reaction samples into Steady Glo reagent: 738.9
[2]; Substrate 25, Alone, Time Sample Taken 0 min
  light values obtained upon addition of the diluted reaction samples into Steady Glo reagent: 1309
[2]; Substrate 25, Alone, Time Sample Taken 60 min
  light values obtained upon addition of the diluted reaction samples into Steady Glo reagent: 157.1
[2]; Substrate 25, Alone, Time Sample Taken 120 min
  light values obtained upon addition of the diluted reaction samples into Steady Glo reagent: 72.57
[2]; Substrate 100, + Co A & DTT, Time Sample Taken 0 min
  light values obtained upon addition of the diluted reaction samples into Steady Glo reagent: 1780
[2]; Substrate 100, + Co A & DTT, Time Sample Taken 60 min
  light values obtained upon addition of the diluted reaction samples into Steady Glo reagent: 1016
[2]; Substrate 100, + Co A & DTT, Time Sample Taken 120 min
  light values obtained upon addition of the diluted reaction samples into Steady Glo reagent: 778.7
[2]; Substrate 100, + Co A, Time Sample Taken 0 min
  light values obtained upon addition of the diluted reaction samples into Steady Glo reagent: 1486
[2]; Substrate 100, + Co A, Time Sample Taken 60 min
  light values obtained upon addition of the diluted reaction samples into Steady Glo reagent: 242.2
[2]; Substrate 100, + Co A, Time Sample Taken 120 min
  light values obtained upon addition of the diluted reaction samples into Steady Glo reagent: 82.03
[2]; Substrate 100, + DTT, Time Sample Taken 0 min
  light values obtained upon addition of the diluted reaction samples into Steady Glo reagent: 1762
[2]; Substrate 100, + DTT, Time Sample Taken 60 min
  light values obtained upon addition of the diluted reaction samples into Steady Glo reagent: 952.1
[2]; Substrate 100, + DTT, Time Sample Taken 120 min
  light values obtained upon addition of the diluted reaction samples into Steady Glo reagent: 691
[2]; Substrate 100, Alone, Time Sample Taken 0 min
  light values obtained upon addition of the diluted reaction samples into Steady Glo reagent: 1245
[2]; Substrate 100, Alone, Time Sample Taken 60 min
  light values obtained upon addition of the diluted reaction samples into Steady Glo reagent: 156.4
[2]; Substrate 100, Alone, Time Sample Taken 120 min
  light values obtained upon addition of the diluted reaction samples into Steady Glo reagent: 61.75
